# Measurements: patent publication US20240415845A1, “Compositions of Iboga Alkaloids and Methods of Treatment” (priority 2022, published 2024)
# What was measured:
# [1] = tested on: special operations veterans with combat and/or blast exposure; assay: Montgomery-Asberg Depression Rating Scale (MADRS), incl. suicidal ideation item Q10; assay type: in vivo, human; details: for Suicidal Ideation (MADRS Q10), % Reporting: only participants with non-zero suicidal ideation at baseline (N 14), baseline 100%
# Text: The pre-specified primary outcome was change in the World Health Organization Disability Assessment Schedule 2.0 (WHODAS) (Gold L. H. et al., J. Am. Acad. Psychiatry Law 42, 9 (2014)) from baseline to post-treatment, with change from baseline to the one-month follow-up a secondary outcome. Additional pre-specified secondary outcomes included post-treatment changes on the Clinician Administered PTSD Scale (CAPS-5; Weathers, F. W. et al., Psychol. Assess., 30, 383-395 (2018)), Montgomery-Åsberg Depression Rating Scale (MADRS; Montgomery, S. A., Br. J. Psychiatry J. Ment. Sci., 134, 382-389 (1979)) and the Hamilton-Anxiety Rating Scale (HAM-A; Bruss, G. S., et al., Psychiatry Res., 53, 191-202 (1994)). […] An additional dose of magnesium was administered approximately 12 hours later. To assess the significance of post-treatment changes, linear mixed effects (LME) models were used for each outcome measure. False Discovery Rate (FDR; Benjamini, Y. et al., J. R. Stat. Soc. Ser. B Methodol., 57, 289-300 (1995)) was applied to correct for multiple comparisons.
# To further assess changes in comorbid psychiatric symptoms identified by the models, mean percent reduction, response rate, and remission rate according to the CAPS-5, MADRS and HAM-A (Table 1) were calculated. Response on the CAPS-5, MADRS, and HAM-A was defined as a reduction of at least 10 points (Mitchell, J. M. et al., Nat. Med. 27, 1025-1033(2021)), 50% (Leucht, S. et al., J. Affect. Disord. 210, 287-293 (2017)), and 50% (McIntyre, A. et al., Depress. Anxiety 24, 487-494 (2007)), respectively; remission as loss of diagnosis and a total score below 12 (Mitchell, J. M. et al. supra), <8 (Leucht, S. et al. supra), and <8(McIntyre, A. et al., supra), respectively.
# With subjects in the fasting state, an intravenous infusion of 1 gram of magnesium sulfate was administered 1-2 hours prior to treatment. […] Medical staff (MD, RN, or EMT) were onsite at a ratio of at least 1 staff per 2 patients throughout treatment for monitoring and management, but no specific coaching or psychological support was provided during treatment.
# Clinician administered scales included CAPS-5 (Clinician-administered PTSD Scale for DSM-5), which is a gold standard assessment of PTSD symptom severity; MADRS (Montgomery-Asberg Depression Rating Scale), a measure for depressive symptom severity: and Hamilton-Anxiety Rating Scale (HAM-A) (Shear, M. K. et al., Depress. Anxiety 13, 166-178 (2001)) a measure for anxiety symptom severity: SCID-5 (Structured Clinical Interview for DSM-5) Overview for a historical and environmental context of symptom presentation: MINI DSM-5 (Mini International Neuropsychiatric Interview from DSM-5) for a structured psychodiagnostics assessment: BAT-L (Boston Assessment of TBI-Lifetime) for a lifetime history of TBI and blast exposure: and Ohio State University TBI Identification Method (Short Form) for a lifetime history of TBI. MADRS testing provides an indication of depressive symptoms, CAPS-5 provides an indication of PTSD and SIGH-A provides an indication of anxiety. Collectively these overlap to provide indication of mood, concentration, sleep and tension.
# The MADRS is a clinician-administered 10-item scale assessing the severity of depression symptoms. Items are rated on a scale of 0 (no abnormality) to 6 (severe) (Montgomery, S. A. et al., Br. J. Psychiatry J. Ment. Sci. 134, 382-389 (1979)). A total score of 0-6 indicates no depression, 7-19 mild depression, 20-34 moderate depression, 35-59 severe depression, and 60+ very severe depressive symptoms (Müller, M. J., J. Affect. Disord. 77, 255-260 (2003)).
# [2] = orally administered to humans; possibly longer in poor CYP2D6 metabolizers; cited from earlier work
# [3] = 1-mo. post, only participants meeting relevant MINI diagnostic criteria
# [4] = 1-mo. post, only participants with mild TBI
# [5] = 1-wk. post, only participants meeting relevant MINI diagnostic criteria
# [6] = 1-wk. post, only participants with mild TBI
smiles,measurement,setting,value
"CCC1CC2CC3c4[nH]c5ccc(OC)cc5c4CCN(C2)C13 (stereo not shown) [ibogaine, Ibogaine]",MADRS % Reduction vs Baseline,[1]; [3],81% ± 21%
same,MADRS Remission Rate,[1]; [3],67%
same,MADRS Response Rate,[1]; [3],93%
same,MADRS score,"[1]; 1-mo. post, only participants meeting relevant MINI diagnostic criteria at baseline (N 15), baseline 31.3 ± 6.5",6.4
same,MADRS % Reduction vs Baseline,[1]; [4],87% ± 17%
same,MADRS Remission Rate,[1]; [4],85%
same,MADRS Response Rate,[1]; [4],96%
same,MADRS score,"[1]; 1-mo. post, only participants with mild TBI (N 28), baseline 25.2 ± 8.7",3.6
same,"Suicidal Ideation (MADRS Q10), % Reporting",[1]; 1-mo. post,14%
same,MADRS score,"[1]; 1-wk post, only participants meeting relevant MINI diagnostic criteria at baseline (N 15), baseline 31.3 ± 6.5",3.6
same,"Suicidal Ideation (MADRS Q10), % Reporting",[1]; 1-wk post,0%
same,MADRS % Reduction vs Baseline,[1]; [5],89% ± 11%
same,MADRS Remission Rate,[1]; [5],73%
same,MADRS Response Rate,[1]; [5],100%
same,MADRS % Reduction vs Baseline,[1]; [6],87% ± 24%
same,MADRS Remission Rate,[1]; [6],85%
same,MADRS Response Rate,[1]; [6],100%
same,MADRS score,"[1]; 1-wk. post, only participants with mild TBI (N 28), baseline 25.2 ± 8.7",2.7
same,subjects meeting criteria for remission with a MADRS score of less than 7,[1]; FIG. 4B,82%
same,"subjects meeting criteria for response, reduction of more than 50% in MADRS symptom severity",[1]; FIG. 4B,96%
same,"MADRS, effect size D","[1]; baseline vs 1-mo. post, only participants meeting relevant MINI diagnostic criteria (N 15)",3.15
same,"MADRS, effect size D","[1]; baseline vs 1-mo. post, only participants with mild TBI (N 28)",2.70
same,"MADRS, effect size D","[1]; baseline vs 1-wk post, only participants with mild TBI (N 28)",2.55
same,"MADRS, effect size D","[1]; baseline vs 1-wk. post, only participants meeting relevant MINI diagnostic criteria (N 15)",4.11
same,"MADRS, effect size D","[1]; baseline vs one-month post, all participants",2.80
same,"MADRS, effect size D","[1]; baseline vs one-week post, all participants",2.65
same,MADRS Remission Rate,"[1]; one-month post, 29 participants, remission = score <8",83%
same,MADRS Response Rate,"[1]; one-month post, 29 participants, response = reduction of at least 50%",97%
same,MADRS score,"[1]; one-month post, all participants, baseline 25.6 ± 8.7, mean ± SD",3.8
same,MADRS % Reduction vs Baseline,"[1]; one-month post, all participants, mean ± SD",87% ± 17%
same,MADRS Remission Rate,"[1]; one-week post, 29 participants, remission = score <8",83%
same,MADRS Response Rate,"[1]; one-week post, 29 participants, response = reduction of at least 50%",100%
same,MADRS % Reduction vs Baseline,"[1]; one-week post, all participants, mean ± SD",87% ± 23%
same,half-life,[2],about 7.5 hours
